Assay results taken from patent publication US7727960B2, “C5a receptor antagonists” (Jerini AG, priority 2003, dated 2010).
Non-standard residues stand in square brackets, D forms with d. Residues, ends and D or L forms follow the SMILES beside them. Bta = N[C@@H](Cc1csc2ccccc12)C(=O)O; d(hLeu) = CC(C)CC[C@@H](N)C(=O)O; Orn = NCCC[C@H](N)C(=O)O

Tests used:
C5aR = molecular target: T1, C5aR (Homo sapiens, UniProt P21730); experiment: Prior-art antagonistic activity (WO 03/033528); conditions: WO 03/033528 values
T1 construct: derived from measurements with isolated membranes from polymorphonuclear neutrophilic granulocytes (PMN membranes); host or cells: isolated membranes of polymorphonuclear neutrophilic granulocytes (PMN membranes)
T1 sequence (P21730 1-350): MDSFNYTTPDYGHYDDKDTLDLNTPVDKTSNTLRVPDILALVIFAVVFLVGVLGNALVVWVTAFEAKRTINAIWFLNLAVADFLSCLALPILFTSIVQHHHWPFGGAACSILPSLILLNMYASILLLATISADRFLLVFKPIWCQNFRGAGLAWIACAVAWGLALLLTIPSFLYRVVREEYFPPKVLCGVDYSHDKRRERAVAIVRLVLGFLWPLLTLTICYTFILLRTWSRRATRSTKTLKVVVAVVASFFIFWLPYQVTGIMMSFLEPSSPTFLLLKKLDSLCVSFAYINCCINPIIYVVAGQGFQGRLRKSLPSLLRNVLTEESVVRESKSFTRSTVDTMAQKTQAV
From the text: In WO 03/033528 single substitutions of various amino acids in the molecule Ac-Phe[Orn-Pro-cha-Trp-Arg](compound 1) [SEQ ID NO: 6] are reported. A decrease of the affinity to the C5aR and a decrease in antagonistic potency is described for the substitution of the Arg with homoarginine (compound 44), citrulline (compound 45), lysine ([…]), or canavanine (compound 47). […] No IC50 value is reported for canavanine. […] Apart from the effects of charged arginine substitutions (homoarginine and lysine), in particular the strong decrease in binding strength upon exchange of the charged arginine (0.45 μM) by the uncharged citrulline (6 μM) is remarkable. The antagonistic activity is reduced even more (Arg: 0.028 μM, Cit: 0.690 μM). […] This also reflects that the size of the side chain itself is not sufficient as a criterium for predicting the activity. WO 03/033528 sets forth that the arginine (1) substitution to citrulline (45) results in a compound with allegedly remarkable antagonistic properties (p. 44, line 28ff). However, the cut off rate for what is remarkable, is chosen arbitrarily and the significant 24-fold drop in activity underlines the in the prior art well known importance of the C-terminal arginine in the peptidic C5aR antagonists. […]

BALB/c mice = experiment: Model of immune complex mediated peritonitis (reverse passive Arthus reaction); type: in vivo; conditions: 1 mg/kg i.v. 15 min before Arthus reaction, lavage after 6 h, FIG. 1
Method: Immune complex mediated peritonitis is part of the pathological conditions of immune complex related diseases such as vasculitis, nephritis, arthritis, and farmer's disease. The corresponding animal model was described by Heller et al. (1999 Journal of Immunology 163: 985-994) and takes advantage of the pro-inflammatory effect of immune complexes formation from i.v. administration of the antigen and i.p. administration of the antibody.
BALB/c mice (6-8 weeks old) were treated i.v. with the compound 149 (1 mg/kg body weight in 200 μl vehicle) which is one in accordance with the present invention, 15 min before the initiation of the reverse passive Arthus reaction. Arthus reaction was induced by the administration of OVA (20 mg/kg i.v. in 200 μl PBS) and polyclonal anti-OVA Ab (rabbit; 800 μg/Maus i.p). After 6 h a peritoenal lavage with 2 ml PBS 0.1% BSA was done. The collected PE-cells were stained with DIFF-Quick. At least 20 visual fields (100× magnification) were analysed for the presence of neutrophils.

Female Wistar rats = experiment: Model of C5a induced neutropenia; type: in vivo; conditions: i.v. infusion 10 min before 2 μg/kg hrC5a i.v., FIG. 2
From the text: C5a induced neutropenia is a model for shock induced diseases (e.g. septic shock), where the systemic role of C5a such as neutropenia, blood pressure decrease, plays an important role. The reason for the decrease of the neutrophils in the circulation is their C5a triggered binding to the vessel walls. This process of neutrophil recruitment is also playing an important role in many other diseases like reperfusion injury. This model was also described by Short et al. (1999 British Journal of Pharmacology 125: 551-554).
Female Wistar rats were anaesthetized i.p. with ketamine (80 mg/kg) and xylazine (12 mg/kg). A catheter was introduced into the jugular veine and the animals were subjected to the following procedure: • 1. Rats were pre-treated with vehicle or compound 149 which is a compound according to the invention, via i.v. infusion. A blood sample was taken one minute prior to that. • 2. 10 min after compound infusion the rats were treated with 2 μg/kg hrC5a i.v. (2 μg/kg over 1 min)
Blood samples are taken shortly before and at various times after hrC5a administration. • 3. […]
White blood cell count was measured with a haematology-cell-counter. […]
The differential cell count is determined as the sum of neutrophils, eosinophils, basophils, lymphocytes and monocytes of 100 cells. Then the percentage of the neutrophils in relation to all white blood cells is calculated.

human C5aR (CD88) [1] = molecular target: T2, human C5aR (CD88) (Homo sapiens, UniProt P21730); experiment: Determination of the IC50 value in an enzyme release assay (functional assay, antagonistic activity); type: cell-based
T2 construct: expressed in transfected cells; host or cells: rat basophilic leukemia cells (RBL)
T2 sequence (P21730 1-350): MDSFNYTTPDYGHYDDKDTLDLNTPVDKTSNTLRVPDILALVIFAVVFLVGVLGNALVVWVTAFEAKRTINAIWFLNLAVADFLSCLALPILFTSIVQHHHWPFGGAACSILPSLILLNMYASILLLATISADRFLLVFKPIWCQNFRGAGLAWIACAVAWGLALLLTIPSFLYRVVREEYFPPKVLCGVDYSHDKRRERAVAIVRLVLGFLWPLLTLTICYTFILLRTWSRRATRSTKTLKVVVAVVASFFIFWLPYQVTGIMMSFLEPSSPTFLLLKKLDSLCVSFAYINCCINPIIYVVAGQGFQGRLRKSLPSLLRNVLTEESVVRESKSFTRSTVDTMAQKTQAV

human C5aR (CD88) [2] = molecular target: T2, human C5aR (CD88); experiment: Determination of EC50 values in an enzyme release assay (agonistic activity, no C5a added); type: cell-based; conditions: cellular assay, up to a concentration of at least 1430 nM
Method: The determination of the EC50 value was performed in a way similar to the procedure described in example 11, with the only exception that 30 μl of the compound to be tested were mixed with 75 μl of the cell suspension described in example 11. There was no preincubation or addition of C5a for stimulation of the enzyme release.

C5a receptor = molecular target: T3, C5a receptor (Homo sapiens, UniProt P21730); conditions: read-out: IC50 as a measure for affinity (WO 03/033528); cited from earlier work
T3 sequence (P21730 1-350): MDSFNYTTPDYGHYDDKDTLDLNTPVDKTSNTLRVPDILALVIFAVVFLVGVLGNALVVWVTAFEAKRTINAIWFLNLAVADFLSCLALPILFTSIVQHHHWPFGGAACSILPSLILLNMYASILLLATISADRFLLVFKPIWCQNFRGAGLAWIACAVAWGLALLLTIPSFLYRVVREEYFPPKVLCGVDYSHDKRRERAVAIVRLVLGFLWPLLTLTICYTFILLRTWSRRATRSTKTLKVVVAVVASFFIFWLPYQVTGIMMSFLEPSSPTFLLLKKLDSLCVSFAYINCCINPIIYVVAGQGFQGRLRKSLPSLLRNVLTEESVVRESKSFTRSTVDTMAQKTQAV

human PMNs = conditions: myeloperoxidase release, read-out: IC50 antagonistic activity (WO 99/00406); cited from earlier work
human C5aR (CD88) [3] = molecular target: T4, human C5aR (CD88) (human, UniProt P21730 1-350); experiment: cell-based or functional assay
T4 sequence (looked up): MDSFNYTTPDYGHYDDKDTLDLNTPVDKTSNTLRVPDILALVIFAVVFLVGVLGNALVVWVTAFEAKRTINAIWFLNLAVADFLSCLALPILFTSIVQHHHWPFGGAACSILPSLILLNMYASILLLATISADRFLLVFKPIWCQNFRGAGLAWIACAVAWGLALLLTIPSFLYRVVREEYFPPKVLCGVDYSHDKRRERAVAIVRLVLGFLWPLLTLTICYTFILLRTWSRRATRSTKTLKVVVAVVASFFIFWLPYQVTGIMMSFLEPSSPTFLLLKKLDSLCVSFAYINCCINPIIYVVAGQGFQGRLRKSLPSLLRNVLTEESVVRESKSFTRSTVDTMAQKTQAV

human C5aR (CD88) [4] = molecular target: T4, human C5aR (CD88); experiment: cell-based or functional assay; remark: listed apart in the source

CC(=O)N[C@@H](Cc1ccccc1)C(=O)N[C@H]1CCCNC(=O)[C@H](CCCNC(N)=O)NC(=O)[C@H](Cc2c[nH]c3ccccc23)NC(=O)[C@@H](CC2CCCCC2)NC(=O)[C@@H]2CCCN2C1=O [Compound 10, Ac-Phe-[Orn-Pro-cha-Trp-Cit]]
drop in activity on substitution of arginine by citrulline (C5aR): 24 fold

CC(=O)N[C@@H](Cc1ccccc1)C(=O)N[C@@H](CCCN)C(=O)N1CCC[C@H]1C(=O)N[C@H](CCC(C)C)C(=O)N[C@@H](Cc1csc2ccccc12)C(=O)N[C@@H](Cc1ccccc1)C(N)=O [Compound 149, Ac-Phe-Orn-Pro-hle-Bta-Phe-NH2] (Ac-F[Orn]P[d(hLeu)][Bta]F-NH2)
influx of pro-inflammatory cells (neutrophils) into the peritoneum (BALB/c mice): reduction of the influx of pro-inflammatory cells into the peritoneum | C5a-induced neutropenia (Female Wistar rats): reduces significantly C5a-induced neutropenia | inhibitory activity (in words) (human C5aR (CD88) [1]): noteworthy inhibitory activity | agonistic activity (in words) (human C5aR (CD88) [2]): pure antagonists

Ac-Phe[Orn-Pro-cha-Trp-Arg] with the Arg substituted with lysine (WO 03/033528); number 47 also printed for canavanine [WO 03/033528 compound 47]
IC50 (C5a receptor): 24000 nM

Ac-Phe[Orn-Pro-cha-Trp-Arg] with the Arg substituted with homoarginine (WO 03/033528) [WO 03/033528 compound 44]
IC50 (C5a receptor): 1360 nM

Me-Phe-Lys-Pro-cha-Trp-arg (FKPXWX; N-methyl, D-cha, D-Arg; oligopeptide with antagonistic activity at the C5a receptor)
IC50 (human PMNs): 85 nM

FXPXWX (not fully specified; Ac-; Orn2; cha4 (D); Cit6; cyclic [2-6]) [Ac-Phe-[Orn-Pro-cha-Trp-Cit]]
IC50 activity group, enzyme release assay (Example 30) (human C5aR (CD88) [3]): ≤ 2000 nM | IC50 activity group, enzyme release assay (human C5aR (CD88) [4]): ≤ 2000 nM
